{
  "source": "patent US20060160848A1",
  "about": "(priority 2002, published 2006)",
  "key": {"[1]": {"tested_on": "mouse hepatocytes", "assay": "Crotyl alcohol toxicity in isolated mouse hepatocytes (LDH leakage)", "settings": "500 μM crotyl alcohol; for protection against crotyl alcohol toxicity by other hydrazines: 1-100 μM hydrazine, 1-3 hours"}, "[2]": {"tested_on": "mouse hepatocytes", "assay": "cells", "settings": "Hepatocyte, 1 h"}, "[3]": {"settings": "pH 7"}, "[4]": {"tested_on": "mouse hepatocytes", "assay": "Toxicity of smoke extract in mouse hepatocytes (LDH leakage)", "assay_type": "cell-based", "settings": "50 μM smoke-derived acrolein equivalents; 25, 50 and 100 μM drug; up to 180 min"}, "[5]": {"tested_on": "mouse hepatocytes"}, "[6]": {"tested_on": "mouse hepatocytes", "remark": "listed apart in the source"}, "[7]": {"target": "T1, acrolein-modified BSA (Bos taurus, UniProt P02769)", "T1 construct": "a model protein (BSA, bovine serum albumin); from tissue; host or cells: bovine serum (from the protein's name only)", "T1 sequence (P02769 25-607)": "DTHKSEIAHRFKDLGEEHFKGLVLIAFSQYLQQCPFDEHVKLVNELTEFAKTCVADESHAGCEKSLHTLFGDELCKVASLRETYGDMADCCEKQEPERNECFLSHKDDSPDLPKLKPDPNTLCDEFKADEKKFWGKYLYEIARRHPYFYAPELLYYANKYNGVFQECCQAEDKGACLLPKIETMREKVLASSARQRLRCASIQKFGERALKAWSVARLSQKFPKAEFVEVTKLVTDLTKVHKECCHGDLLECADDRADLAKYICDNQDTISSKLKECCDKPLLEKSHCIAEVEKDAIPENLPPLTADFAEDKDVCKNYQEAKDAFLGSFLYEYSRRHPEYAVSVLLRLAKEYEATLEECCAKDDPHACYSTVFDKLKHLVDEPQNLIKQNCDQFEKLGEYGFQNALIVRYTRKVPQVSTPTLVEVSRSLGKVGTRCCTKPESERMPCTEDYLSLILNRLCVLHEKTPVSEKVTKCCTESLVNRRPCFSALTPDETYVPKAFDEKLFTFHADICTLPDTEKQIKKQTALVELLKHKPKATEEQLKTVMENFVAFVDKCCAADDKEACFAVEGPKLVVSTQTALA", "assay": "Cell-free immunoassay for adduct-breaking on acrolein-pretreated BSA", "assay_type": "biochemical, bovine", "settings": "for adduct-breaking activity (acrolein-lysine adducts in BSA): BSA pretreated with 1 mM acrolein 20 min, 50, 250 and 500 μM test compound, 30 min at 37° C."}, "[8]": {"tested_on": "PC-12 cells", "assay": "Allylamine cytotoxicity in PC-12 cells (MTT)"}, "[9]": {"tested_on": "mouse hepatocytes", "remark": "listed apart in the source"}, "[10]": {"tested_on": "mice", "assay": "Allyl alcohol hepatotoxicity in mice (plasma SDH, GPT, hepatic GSH)"}, "[11]": {"target": "acrolein-premodified BSA (Bos taurus, UniProt P02769)", "sequence (P02769 25-607)": "as above", "settings": "1 mM acrolein, then 50 to 500 μM hydralazine 30 min"}, "[12]": {"tested_on": "mouse hepatocytes", "remark": "listed apart in the source"}, "[13]": {"tested_on": "mouse hepatocytes", "settings": "0.5 mM acrolein; 0.3 to 3 mM hydralazine"}, "[14]": {"tested_on": "mouse hepatocytes", "settings": "15 min, 3 mM hydralazine alone or 0.5 mM acrolein + 0.3 to 3 mM hydralazine"}, "[15]": {"settings": "hypertensive human subjects, 50 mg oral dose; cited from earlier work"}, "[16]": {"tested_on": "mouse liver", "assay": "Adduct-trapping in mouse liver proteins (Western blot, immunohistochemistry)", "assay_type": "in vivo"}, "[17]": {"target": "bovine pancreas ribonuclease A (Bos taurus, UniProt P61823)", "sequence (P61823 27-150)": "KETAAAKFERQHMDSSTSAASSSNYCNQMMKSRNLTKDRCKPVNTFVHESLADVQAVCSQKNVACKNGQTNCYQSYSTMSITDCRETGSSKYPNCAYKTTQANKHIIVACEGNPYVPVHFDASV", "settings": "3.2 mM acrolein; 0.3 to 3 mM hydralazine"}, "[18]": {"assay": "Sequestering of crotonaldehyde from buffered solution at 37° C. (HPLC)", "settings": "equimolar scavenger, up to 30 minutes"}, "[19]": {"settings": "read-out: PC50 (concentration producing a 50% decrease in LDH leakage)"}, "[20]": {"settings": "read-out: PC50 (concentration affording 50% reduction in cell killing)"}, "[21]": {"settings": "allyl alcohol 90 mg/kg i.p., 4 hours, estimated from dose-response"}, "[22]": {"settings": "hydralazine 200 μmol/kg i.p., allyl alcohol 90 mg/kg"}, "[23]": {"settings": "200 vs 100 μmol/kg hydralazine, allyl alcohol 90 mg/kg, 60 minutes"}},
  "note": "Read-outs that look alike come from different tables or passages of the source.",
  "data": [
    {"molecule": "NN(c1ccccc1)c1ccccc1", "note": "[1,1-diphenylhydrazine]", "values": [
      {"measurement": "protection against crotyl alcohol toxicity by other hydrazines", "setting": "[1]", "value": "best protection"},
      {"measurement": "EC50", "setting": "[2]; [19]", "value": "2 ± 0.01", "unit": "µM"}
    ]},
    {"molecule": "NNCc1ccccc1", "note": "[benzylhydrazine]", "values": [
      {"measurement": "protection against crotyl alcohol toxicity by other hydrazines", "setting": "[1]", "value": "very poor cytoprotection"},
      {"measurement": "EC50", "setting": "[2]; [19]", "value": "37 ± 1.8", "unit": "µM"}
    ]},
    {"molecule": "NNc1nnc(NN)c2ccccc12", "note": "[dihydralazine]", "values": [
      {"measurement": "acrolein removed from solution", "setting": "[3]", "value": "~92", "unit": "%"},
      {"measurement": "protection against crotyl alcohol toxicity (LDH leakage)", "setting": "[1]; co-incubated up to 3 hours, 1-100 μM", "value": "approximately twice as effective as hydralazine"},
      {"measurement": "attenuation of LDH leakage caused by smoke extract", "setting": "[4]", "value": "completely attenuating LDH leakage at all concentrations examined"},
      {"measurement": "attenuation of allyl alcohol toxicity (LDH leakage)", "setting": "[5]", "value": "strongly attenuated the toxicity of allyl alcohol"},
      {"measurement": "protection against allyl alcohol toxicity (LDH leakage)", "setting": "[5]", "value": "approximately twice as protective as hydralazine"},
      {"measurement": "effect on cyclophosphamide-induced LDH leakage", "setting": "[6]", "value": "attenuated the toxicity of cyclophosphamide"},
      {"measurement": "adduct-breaking activity (acrolein-lysine adducts in BSA)", "setting": "[7]", "value": "reducing adducts below detectable levels"},
      {"measurement": "cell viability restored to", "setting": "[8]; 45 μM allylamine, 24 hr, approximately 1 μM dihydralazine and higher, allylamine alone about 40% of controls", "value": "approximately 80%"},
      {"measurement": "EC50", "setting": "[2]; [20]", "value": "5.2 ± 1.5", "unit": "µM"},
      {"measurement": "EC50", "setting": "[2]; [19]", "value": "13 ± 0.29", "unit": "µM"}
    ]},
    {"molecule": "NNc1nncc2ccccc12", "note": "[hydralazine]", "values": [
      {"measurement": "protection against pentenal toxicity", "setting": "[9]; 1 mM pentenal, 3 hours", "value": "protection was most efficient for pentenal toxicity"},
      {"measurement": "concentration achieving complete protection against propargyl alcohol toxicity", "setting": "[9]; 1 mM propargyl alcohol, 3 hours, highest concentration used", "value": 100, "unit": "µM"},
      {"measurement": "concentration achieving complete protection against MDA toxicity", "setting": "[9]; 10 mM MDA, 12 to 18 hours, highest concentration used", "value": 100, "unit": "µM"},
      {"measurement": "acrolein removed from solution", "setting": "[3]", "value": "approximately 82%"},
      {"measurement": "effect on allyl alcohol-induced changes in plasma SDH and GPT activities", "setting": "[10]; allyl alcohol 90 mg/kg i.p. + hydralazine 300 μmol/kg i.p., 4 hours", "value": "almost totally abolishing"},
      {"measurement": "dose affording half-maximal protection against liver injury (GPT)", "setting": "[10]; [21]", "value": 80, "unit": "µmol/kg"},
      {"measurement": "dose affording half-maximal protection against liver injury (SDH)", "setting": "[10]; [21]", "value": 160, "unit": "µmol/kg"},
      {"measurement": "effect on hepatic GSH depletion caused by allyl alcohol", "setting": "[10]; allyl alcohol 90 mg/kg, hepatoprotective doses up to 300 μmol/kg", "value": "had no effect upon the hepatic GSH depletion"},
      {"measurement": "effect on plasma SDH levels", "setting": "[10]; allyl alcohol 100 mg/kg i.p. + hydralazine 100 μmol/kg i.p., 4 hours", "value": "did not alter the levels of SDH"},
      {"measurement": "decrease in plasma SDH activity", "setting": "[10]; allyl alcohol 100 mg/kg i.p. + hydralazine 200 and 300 μmol/kg i.p., 4 hours", "value": "75 to 90", "unit": "%"},
      {"measurement": "hepatoprotection (plasma SDH), 30 minute delay", "setting": "[10]; [22]", "value": "hepatoprotective efficacy was diminished"},
      {"measurement": "hepatoprotection (plasma SDH), co-administered or 20 minute delay", "setting": "[10]; [22]", "value": "strongly hepatoprotective"},
      {"measurement": "adduct-trapping in acrolein-premodified BSA", "setting": "[11]", "value": "strong adduct-trapping"},
      {"measurement": "adduct-trapping in cell proteins", "setting": "[12]; 100 μM allyl alcohol 25 min, then 5 to 50 μM hydralazine 30 min", "value": "intense, concentration-dependent adduct-trapping"},
      {"measurement": "increase in band intensity (densitometry)", "setting": "[12]; 37, 40 and 43 kDa proteins, hydralazine 4 to 10 μM, postadduction phase", "value": "12- to-200 fold"},
      {"measurement": "attenuation of allyl alcohol toxicity (LDH leakage)", "setting": "[5]", "value": "strongly attenuated the toxicity of allyl alcohol"},
      {"measurement": "protection against allyl alcohol toxicity (LDH leakage)", "setting": "[5]", "value": "inhibited this toxicity in a concentration dependent manner"},
      {"measurement": "effect on cyclophosphamide-induced LDH leakage", "setting": "[6]", "value": "attenuated the toxicity of cyclophosphamide"},
      {"measurement": "cytoprotection against acute acrolein toxicity (LDH leakage)", "setting": "[13]", "value": "afford cytoprotection"},
      {"measurement": "intensity of acrolein adduct-containing protein bands", "setting": "[14]", "value": "much lower than that seen in control cells"},
      {"measurement": "intensity of acrolein adduct-containing protein bands", "setting": "[14]; listed as Hydralazine", "value": "decreasing levels of adducted proteins below control values"},
      {"measurement": "peak plasma level", "setting": "[15]", "value": "~2", "unit": "µM"},
      {"measurement": "time acrolein adducts retained susceptibility to cleavage by hydralazine", "setting": "[7]; BSA + 1 mM acrolein 15-180 min, then 2 mM hydralazine 30 min", "value": "at least 30 minutes"},
      {"measurement": "adduct-breaking activity (acrolein-lysine adducts in BSA)", "setting": "[7]", "value": "diminished the intensity of acrolein adducted-BSA in a concentration-dependent manner"},
      {"measurement": "elevation in signal intensity, 26 kDa protein", "setting": "[16]; [23]", "value": 2.6, "unit": "fold"},
      {"measurement": "elevation in signal intensity, 31 kDa protein", "setting": "[16]; [23]", "value": 2.4, "unit": "fold"},
      {"measurement": "adduct-trapping in liver proteins (Western blot)", "setting": "[16]; 60 minutes after allyl alcohol 90 mg/kg + hydralazine 100 μmol/kg", "value": "strong adduct-trapping"},
      {"measurement": "immunohistochemical detection of hydralazine-stabilized acrolein adducts in liver sections", "setting": "[16]; 4 hours after 300 μmol/kg i.p., hydralazine given with allyl alcohol, hydrazone given alone", "value": "intense adduct-trapping"},
      {"measurement": "acrolein-lysine adducts in RNase A, added at 30 minutes", "setting": "[17]", "value": "abolished the levels of acrolein-lysine adducts"},
      {"measurement": "effect on cross-linked RNase A, added at 120 minutes", "setting": "[17]", "value": "incapable of cleaving crosslinked RNase A"},
      {"measurement": "inhibition of RNase A cross-linking, added at 30 minutes", "setting": "[17]", "value": "strongly inhibited formation of crosslinked RNase A"},
      {"measurement": "adduct-trapping in PC12 cell proteins (Western blot)", "setting": "[8]; 100 μM hydralazine + 80 or 100 μM allylamine", "value": "intense adduct-trapping reactions"},
      {"measurement": "protection against allylamine toxicity, added after 4 hour prior exposure", "setting": "[8]; 100 μM hydralazine, 20-100 μM allylamine", "value": "also protected"},
      {"measurement": "protection against allylamine toxicity, concurrent exposure", "setting": "[8]; 100 μM hydralazine, 20-100 μM allylamine, overnight", "value": "clear protection"},
      {"measurement": "EC50", "setting": "[2]; [20]", "value": "8.3 ± 4", "unit": "µM"},
      {"measurement": "EC50", "setting": "[2]; [19]", "value": "18 ± 0.81", "unit": "µM"}
    ]},
    {"molecule": "carnosine", "values": [
      {"measurement": "acrolein removed from solution", "setting": "[3]", "value": "approximately 20%"},
      {"measurement": "EC50", "setting": "[5]; [20]", "value": "> 10000", "unit": "µM"},
      {"measurement": "EC50", "setting": "[5]; [19]", "value": "> 10000", "unit": "µM"},
      {"measurement": "ability to sequester crotonaldehyde from solution", "setting": "[18]", "value": "slightly more effective at removing crotonaidehyde from solution than pyridoxamine"},
      {"measurement": "adduct-breaking activity (acrolein-lysine adducts in BSA)", "setting": "[7]", "value": "lacked adduct-breaking potency"}
    ]}
  ]
}
